Bounds are passed on as bounds.

As to `Cc1cc(C(F)(F)F)nc(N(C(N)=O)c2ccccc2C(F)(F)F)n1`, the melting point – broadly, the temperature, or range, at which the solid turns liquid – lay in the range of 150 to 153 °C.
The value for `CCCCCc1c(C(C)C)nc(C(C)C)c(C(C)O)c1-c1ccc(F)cc1` (stereo not given) was 83 °C; that for `CNC(=O)[C@@H]1O[C@H]1c1ccc(OC)cc1` was 135 to 136 °C; that for `O=C1CCC2=C1C(c1cccc([N+](=O)[O-])c1)C1=C(CCCS1)N2` (stereo not given) was more than 260 °C.
In turn, `O=C(O)c1ccc(NCCCCCCCCc2ccccc2)cc1` gave a melting point of 113 to 115 °C.
Next, `COC(=O)c1ncc(OS(=O)(=O)c2ccc(C)cc2)c2c1[nH]c1ccccc12`: 230 to 231 °C; `N#Cc1ccc(-c2nc(Cl)c3c(n2)CCCC3)cc1`: 190 °C.
Next, `CCOC(=O)C1=C(C)NC(COCCn2ccnc2)=C(C(=O)OCC)C1c1ccccc1Cl` (stereo not given): 163 to 165 °C; `COc1cccc(Cc2cnc(N)nc2N)c1`: 221 to 223 °C.
Next, `C=CCOc1ccc(CCNC(=O)NC)cc1OC`: 81 to 83 °C; `CCn1ncc(C(=O)c2ccc(Cl)cc2Cl)c1O`: 144 to 146 °C; `COC1=CC(=O)OC1C(O)c1ccccc1C(F)(F)F` (stereo not given): 126 to 128 °C.
As for `Clc1ccc2c(C3=CCNCC3)c[nH]c2c1Cl`, the melting point was 252 to 254 °C.
The value for `Cc1cccc(N(C)C(=S)Oc2ccc(Cl)c(C)c2)n1` was 134 to 136 °C; that for `c1ccc2c(c1)C(=NOCCN1CCCCC1)c1ccccc1C1CC21` (stereo not given) was 75 to 76 °C; that for `CCCOc1ccccc1C1=NC(=O)C2=NC(c3ccccc3)=NC2=N1` was 259 to 260 °C.
The value for `O=S1(=O)c2ccccc2N(c2ccc(OCc3ccccc3)cc2)c2ccccc21` was 203 to 208 °C; that for `COc1ccccc1N1CCN(CCCNC2=CC(=O)N(C)S(=O)(=O)N2C)CC1` was 137 to 139 °C; that for `CC(=O)OCC(=O)NCc1cccc2c1C(=O)N(C1CCC(=O)NC1=O)C2=O` (stereo not given) was 108 to 110 °C.
The value for `O=[N+]([O-])c1cnn(-c2c(Cl)cc(C(F)(F)F)cc2Cl)c1Cl` was 80 to 84 °C.
On to `Cc1csc(-c2sc(Br)cc2-c2ccc(F)cc2)c1`, for which the melting point was 113 to 116 °C.
Molecule `CC(C)c1ccnc(C(C)C)c1N` yielded a melting point of 35 to 39 °C.
In turn, `CCCCc1nc2cc(C(=O)O)cc(C(=O)O)c2n1Cc1ccccc1Cl` registered a melting point of 299 to 301 °C.
The molecule `OC1(c2ccc(F)cc2)CCN(Cc2ccnc(-c3ccccc3)c2)CC1` gave a melting point of 149 to 151 °C.
With `Cc1ccc(C(=O)Oc2ccc(C(CN(C)C)C3(O)CCCCC3)cc2)cc1` (stereo not given), the melting point was 159 to 162 °C.
The value for `CN(C)CCc1[nH]c2ccccc2c1CSc1nccn1C` was 152 to 154 °C; that for `O=c1[nH]cnc2c1sc(=O)n2C1OC(CO)C(O)C1O` (stereo not given) was 216 to 218 °C.
`COc1ccc(CN2C(=O)C(N)C(=O)N(CC34CC5CC(CC(C5)C3)C4)c3ccccc32)cc1` (stereo not given) showed a melting point of 223 to 225 °C.
The value for `COCCOc1cc(Oc2ccccc2)cnc1Nc1nccs1` was 141 °C; that for `COc1ccc(Sc2c(O)c3c(Cl)cc(Cl)cc3[nH]c2=O)cc1` was 280 to 282 °C.
With `CN(C)CCOc1ccc2cc3ncc(C#N)c(Nc4ccc(Cl)cc4Cl)c3cc2c1`, the melting point fell in the range of 115 to 117 °C.
`COc1ccc2c(c1OC)OC(C)(C)CC2=O` displayed a melting point of 75 to 76 °C.
Next, `O=C1OC(O)c2cccc(O)c21` (stereo not given): 124 to 126 °C.
Next, `CCc1nn2ccc3oc(C)cc3c2c1CCNC(C)=O`: 128 to 129 °C.
Molecule `O=C1Nc2ccc(I)cc2C1=NNC(=O)c1ccc(Oc2ccccc2)cc1` came in with a melting point of 296 °C.
The value for `O=C(Oc1ccccc1)c1n[nH]c2c(=O)[nH]c3cc(Cl)ccc3c(=O)c12` was 265 °C.
Next, `Cc1c(-c2ccc3c(c2)C(N2Cc4ccccc4C2=O)C(O)C(C)(C)O3)c(=O)c1=O` (stereo not given): more than 250 °C.
The value for `O=C(O)C(OCc1ccc(-c2ccc(Cl)cc2)cc1)c1ccc(Cl)cc1` (stereo not given) was 120 to 122 °C; that for `CC(C)N(Cc1ccc2cc(NC(=O)c3ccc(-c4ccc(Cl)cc4)cc3)ccc2c1)C(C)C` was 246 to 250 °C; that for `COc1ccc(C(=O)C2CCC(CCO)CC2)cc1O` (stereo not given) was 107 to 109 °C.
`COc1ccc(O)c(C(=O)c2ccc(O)cc2)c1` yielded a melting point of 144 to 148 °C.
Turning to `CC#CCOc1ccc(S(=O)(=O)C(C(=O)NO)C2CCN(C(C)=O)CC2)cc1` (stereo not given), the melting point is 103 °C.
The molecule `COc1cccc2oc(-c3ccccc3Cl)cc(=O)c12` came in with a melting point of 148 to 149 °C.
Take `CCC#CCOc1cc2c(cc1C=O)C(C)(C)CCC2(C)C`: the melting point fell in the range of 90 to 91 °C.
The value for `Cn1c(=O)ccc2cnc(Nc3ccccc3)nc21` was 244 to 247 °C; that for `CC(=O)c1cccc(Oc2ncccc2C(=O)NCC2CCC(C(C)(C)O)CC2)c1` (stereo not given) was 105 to 107 °C; that for `CC(C)(NC(=O)OCc1ccccc1)C(=O)Nc1ccc([N+](=O)[O-])cc1C(=O)c1ccccc1F` was 153 to 155 °C.
Next, `Oc1nc2cccnc2n1Cc1ccccc1`: 177 to 179 °C.
Take `Cc1ccc2c(c1)c(=O)[nH]c1c2c2ccccc2n1C`: the melting point was more than 310 °C.
Turning to `Cn1nc(Cl)cc(Nc2ccncn2)c1=O`, the melting point lay within 233 to 235 °C.
The molecule `CONC(=O)NC1(c2ccc(C(C)C)cc2OC)C(=O)c2ccccc2C1=O` registered a melting point of 153 to 155 °C.
Molecule `Cc1ccc(C(=O)Nc2ccc(CN3CCCC3)c(C(F)(F)F)c2)cc1Br` came in with a melting point of 168 to 170 °C.
The molecule `O=C(NCCCO)c1ccc[nH]1` yielded a melting point of 71 to 73 °C.
The value for `COc1cc(C)c(N)cc1C` was 75 to 76 °C; that for `CN(C)C(=O)C(C#N)=Cc1cc(O)c(O)c([N+](=O)[O-])c1` was 183 to 185 °C; that for `CCCCCCCCCCOc1ccc(C(=O)Nc2cc(CCC(=O)CC3CCCCCC3)ccc2C(C)(C)C)cc1` was 98 to 99 °C.
The value for `CCCCCCC(CCC(=O)OC)n1cnc(NC(=O)c2ccccc2C(=O)O)c1` (stereo not given) was 135 to 136 °C; that for `Cc1c(F)cccc1NC(=O)c1ccccc1CN1C(=O)C2(COc3cc4c(cc32)CCO4)c2ccccc21` (stereo not given) was more than 230 °C; that for `C[C@@H]1NC(=O)c2cccc(N)c2NC1=O` was 320 °C.
Take `O=C1C=C(O)C(=O)c2cc(Br)ccc21`: the melting point was 197 °C.
With `COc1ccc(C=C(Br)Br)c(OC)c1`, the melting point was in the range of 147 to 148 °C.
Take `CC(C)(C)OC(=O)N1CCN(C(c2ccccc2)c2ccc(Cl)cc2)CC1` (single isomer, unassigned; (-)): the melting point was 156 °C.
`COC(=O)c1cc(O)c2c(ccc3sc4ccc(F)cc4c32)n1`: the melting point lay within 269 to 271 °C.
The value for `COCC(c1cc(C)ccc1C)S(=O)(=O)c1ccccn1` (stereo not given) was 91 to 93 °C; that for `CCCCN(C)CCOc1ccc(-n2c(-c3ccc(O)cc3)c(C)c3cc(O)ccc32)cc1` was 102 to 107 °C.

These data come from a melting point compilation (Tetko et al.; mined from patent text by program, amines drawn as free bases though some values may be those of a salt).
